The subject of test [1] is HCV replicon (BB7 sequence) in Huh-7-Clone A cells. The experiment in a line: HCV replicon assay: ELISA of NS5A protein in replicon-containing cells (Inhibition of Viral RNA Replication). Conditions: read-out: Replicon. The test is classed as cell-based. The method, boiled down: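 EC50 taken from an 8-point serially diluted dose curve, with NS5A level as read-out: fixed cells probed with primary monoclonal and HRP-conjugated secondary, TMB developed 30 min, OD 650 nm. Compound exposure 72 h in Huh-7-Clone A replicon cells (BB7 sequence).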
In general terms: In antiviral work, replicon cells carry a viral genome segment that copies itself.

The target of test [2] is T1, HCV NS5B (Hepatitis C virus genotype 1b, UniProt Q9WMX2).
T1 construct: fusion protein, of which the carboxyl terminal 21 amino acids were removed to enhance its solubility; His tag (GSHHHHHH); made in house; host or cells: E. coli
The experiment in a line: Inhibition of viral RNA-dependent RNA polymerase (RdRp), in vitro biochemical assay. Conditions: read-out: HCV pol-BB7 IC50. Also noted: species or system HCV genotype 1b virus (BB7). The method, boiled down: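 IC50 values are the concentrations that halve in vitro RNA synthesis by HCV NS5B polymerase. The enzyme was a C-terminally truncated (Δ21), His-tagged genotype 1b (BB7 consensus) protein purified from E. coli.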

The mark [3] stands for this setting: Hepatitis C virus, Huh-7-Clone A, NS5A ELISA, 72-hour incubation, ranges of EC50.
Where [4] appears, read: purified His-tagged NS5B (BB7), carboxyl terminal 21 amino acids removed.
The mark [5] stands for this setting: Hepatitis C virus, HCV replicon assay, ranges of EC50.
Where [6] appears, read: HCV NS5B RdRp, BB7, activity class.
Where [7] appears, read: Hepatitis C virus, HCV replicon, range of EC50.
Setting [8] is: HCV NS5B RdRp, BB7, reported as range class.
Where [9] appears, read: HCV NS5B RdRp, BB7, class symbols A-D.
Setting [10] is: HCV NS5B polymerase, BB7 (genotype 1b), values given as range classes A-D.
Setting [11] is: Hepatitis C virus, ranges of EC50 in HCV replicon assay.
Where [12] appears, read: HCV NS5B RdRp, BB7 (genotype 1b), reported as class symbols.
The mark [13] stands for this setting: Hepatitis C virus, HCV replicon assay, ranges of 50% effective concentration (EC50).

Like-named read-outs stand apart in the source and are kept apart here.

For orientation: IC50 means the concentration needed to halve the response being measured. For the molecule `CNC(=O)c1c(-c2ccco2)oc2ccc(OC)cc12` [Example 68, 2-Furan-2-yl-5-methoxy-benzofuran-3-carboxylic acid methylamide], the EC50 in test [1] (setting [3]) was under 30000 nM. The IC50 in test [2] (setting [4]) lay in the range of 500 to 5000 nM.

With `CCOC(=O)c1ccc(NC(=O)COc2cc3c(C(=O)NC)c(-c4ccc(F)cc4)oc3cc2N(C)S(C)(=O)=O)cc1` [Example 359, 4-{2-[2-(4-Fluoro-phenyl)-6-(methanesulfonyl-methyl-amino)-3-methylcarbamoyl-benzofuran-5-yloxy]-acetylamino}-benzoic acid ethyl ester], the EC50 in test [1] (setting [5]) was under 10000 nM. For the same molecule, in test [2] (setting [6]), the IC50 is at most 500 nM.

Consider `CNC(=O)c1c(-c2ccc(F)cc2)oc2cc(-c3ccc(S(C)(=O)=O)cc3)c(OC(C)C)cc12` [Example 179, 2-(4-Fluoro-phenyl)-5-isopropoxy-6-(4-methanesulfonyl-phenyl)-benzofuran-3-carboxylic acid methylamide], for which the EC50 in test [1] (setting [7]) is under 10000 nM. Besides, in test [2] (setting [8]), the IC50 is at most 500 nM.

Turning to `CNC(=O)c1c(-c2ccc(F)cc2)oc2cc(CN3CCOCC3)c(OC(C)C)cc12` [Example 223, 2-(4-Fluoro-phenyl)-5-isopropoxy-6-morpholin-4-ylmethyl-benzofuran-3-carboxylic acid methylamide], the EC50 in test [1] (setting [7]) is under 10000 nM. Moreover, the IC50 in test [2] (setting [8]) was in the range of 5000 to 30000 nM.

Consider `CNC(=O)c1c(-c2ccc(F)cc2)oc2cc(Br)c(OC)cc12` [Example 13, 6-Bromo-2-(4-fluoro-phenyl)-5-methoxy-benzofuran-3-carboxylic acid methylamide], for which the EC50 in test [1] (setting [3]) is under 1000 nM. The IC50 in test [2] (setting [4]) is at most 500 nM.

In the case of `CNC(=O)c1c(-c2ccc(F)cc2)oc2cc(N3CCOCC3)c(OCc3nnnn3C)cc12` [Example 209, 2-(4-Fluoro-phenyl)-5-(1-methyl-1H-tetrazol-5-ylmethoxy)-6-morpholin-4-yl-benzofuran-3-carboxylic acid methylamide], the EC50 in test [1] (setting [7]) is under 10000 nM. Also, the IC50 in test [2] (setting [8]) lay in the range of 500 to 5000 nM.

As for `CNC(=O)c1c(-c2ccc(F)cc2)oc2cc(N(CCOC(F)(F)F)S(C)(=O)=O)c(OC)cc12` [Example 316, 2-(4-Fluoro-phenyl)-6-[methanesulfonyl-(2-trifluoromethoxy-ethyl)-amino]-5-methoxy-benzofuran-3-carboxylic acid methylamide], in test [1] (setting [5]), the EC50 is under 1000 nM. Further, the IC50 in test [2] (setting [9]) fell in the range of 500 to 5000 nM.

On to “2-(4-Fluoro-phenyl)-5-methoxy-6-(5-methyl-[1,3,4]oxadiazol-2-yl)-benzofuran-3-carboxylic acid methylamide [Example 430]”, for which the EC50 in test [1] (HCV replicon assay, ranges of 50% effective concentration (EC50)) is under 10000 nM. Further, the IC50 in test [2] (setting [10]) is at most 500 nM.

`CNC(=O)c1c(-c2ccc(F)cc2)oc2cc(N(C(C)C)S(C)(=O)=O)c(OC(C)C)cc12` [Example 136, 2-(4-Fluoro-phenyl)-5-isopropoxy-6-(isopropyl-methanesulfonyl-amino)-benzofuran-3-carboxylic acid methylamide]: the EC50 in test [1] (setting [11]) is under 1000 nM. Also, the IC50 in test [2] (HCV NS5B RdRp, BB7 genotype 1b) was at most 500 nM.

With `CNC(=O)c1c(-c2ccc(F)cc2)oc2cc(Br)c(OC(C)C)cc12` [Example 92, 6-Bromo-2-(4-fluoro-phenyl)-5-isopropoxy-benzofuran-3-carboxylic acid methylamide], in test [1] (setting [11]), the EC50 is under 1000 nM. Also, the IC50 in test [2] (HCV NS5B RdRp, BB7 genotype 1b) was at most 500 nM.

For the molecule `CNC(=O)c1c(-c2ccc(F)cc2)oc2cc(N3CCCCC3)c(OC(C)C)cc12` [Example 101, 2-(4-Fluoro-phenyl)-5-isopropoxy-6-piperidin-1-yl-benzofuran-3-carboxylic acid methylamide], in test [1] (setting [11]), the EC50 was under 1000 nM. Also, the IC50 in test [2] (HCV NS5B RdRp, BB7 genotype 1b) was at most 500 nM.

Regarding “2-(4-Fluoro-phenyl)-5-hydroxy-6-morpholin-4-yl-benzofuran-3-carboxylic acid methylamide [Example 124]”, in test [1] (ranges of EC50 in HCV replicon assay), the EC50 is under 10000 nM. Besides, in test [2] (HCV NS5B RdRp, BB7 genotype 1b), the IC50 lay in the range of 500 to 5000 nM.

With `CNC(=O)c1c(-c2ccc(F)cc2)oc2cc(N(Cc3ccc(OC)cc3)S(C)(=O)=O)c(OC(C)C)cc12` [Example 281, 2-(4-Fluoro-phenyl)-5-isopropoxy-6-[methanesulfonyl-(4-methoxy-benzyl)-amino]-benzofuran-3-carboxylic acid methylamide], in test [1] (setting [5]), the EC50 was under 1000 nM. The IC50 in test [2] (setting [9]) was at most 500 nM.

With `CNC(=O)c1c(-c2ccc(F)cc2)oc2cc(NS(C)(=O)=O)c(C3CCCO3)cc12` (stereo not drawn) [Example 441, 2-(4-Fluoro-phenyl)-6-methanesulfonylamino-5-(tetrahydro-furan-2-yl)-benzofuran-3-carboxylic acid methylamide], the EC50 in test [1] (setting [5]) is under 1000 nM. Further, the IC50 in test [2] (setting [12]) is at most 500 nM.

On to `CCCOc1cc2c(C(=O)NC)c(-c3ccc(F)cc3)oc2cc1NS(C)(=O)=O` [Example 445, 2-(4-Fluoro-phenyl)-6-methanesulfonylamino-5-propoxy-benzofuran-3-carboxylic acid methylamide], for which the EC50 in test [1] (setting [5]) is under 1000 nM. Besides, the half-inhibitory concentration (IC50) in test [2] (setting [12]) was at most 500 nM.

Regarding `CNC(=O)c1c(-c2ccc(F)cc2)oc2cc(-c3c(C)noc3C)c(OCc3c(C)noc3C)cc12` [Example 429, 6-(3,5-Dimethyl-isoxazol-4-yl)-5-(3,5-dimethyl-isoxazol-4-ylmethoxy)-2-(4-fluoro-phenyl)-benzofuran-3-carboxylic acid methylamide], the EC50 in test [1] (setting [13]) is under 1000 nM. The half-inhibitory concentration (IC50) in test [2] (setting [10]) is at most 500 nM.

On to `CNC(=O)c1c(-c2ccc(F)cc2)oc2cc(N3CCCC3)c(OC(C)C)cc12` [Example 6, 2-(4-Fluoro-phenyl)-5-isopropoxy-6-pyrrolidin-1-yl-benzofuran-3-carboxylic acid methylamide], for which the EC50 in test [1] (setting [3]) was under 1000 nM. Further, the 50% inhibitory concentration (IC50) in test [2] (setting [4]) is at most 500 nM.

Consider `CNC(=O)c1c(-c2ccc(F)cc2)oc2cc(C3CCN(C(C)=O)C3)c(OC)cc12` (stereo not drawn) [Example 345, 6-(1-Acetyl-pyrrolidin-3-yl)-2-(4-fluoro-phenyl)-5-methoxy-benzofuran-3-carboxylic acid methylamide], for which, in test [1] (setting [5]), the EC50 was under 10000 nM. For the same molecule, the IC50 in test [2] (setting [6]) was at most 500 nM.

As to `CNC(=O)c1c(-c2ccc(F)cc2)oc2cc(-c3nocc3CCO)c(OC)cc12` [Example 41, 2-(4-Fluoro-phenyl)-6-[4-(2-hydroxy-ethyl)-isoxazol-3-yl]-5-methoxy-benzofuran-3-carboxylic acid methylamide], the EC50 in test [1] (setting [3]) was under 1000 nM. Moreover, the IC50 in test [2] (setting [4]) is at most 500 nM.

For the molecule `CCN(c1cc2oc(-c3ccc(F)cc3)c(C(=O)NC)c2cc1OC(C)C)S(C)(=O)=O` [Example 255, 6-(Ethyl-methanesulfonyl-amino)-2-(4-fluoro-phenyl)-5-isopropoxy-benzofuran-3-carboxylic acid methylamide], in test [1] (setting [5]), the EC50 was under 1000 nM. Also, the concentration for half-maximal inhibition (IC50) in test [2] (setting [9]) is at most 500 nM.

Take `CNC(=O)c1c(-c2ccc(F)cc2)oc2cc(OC)c(OC)cc12` [Example 102, 2-(4-Fluoro-phenyl)-5,6-dimethoxy-benzofuran-3-carboxylic acid methylamide]: in test [1] (setting [11]), the EC50 was under 1000 nM. Moreover, in test [2] (HCV NS5B RdRp, BB7 genotype 1b), the IC50 is at most 500 nM.

Regarding `CNC(=O)c1c(-c2ccc(F)cc2)oc2ccc(F)cc12` [Example 82, 5-Fluoro-2-(4-fluoro-phenyl)-benzofuran-3-carboxylic acid methylamide], the EC50 in test [1] (setting [3]) is under 30000 nM. Further, in test [2] (setting [4]), the IC50 was in the range of 500 to 5000 nM.

On to `CCOc1cc(F)ccc1-c1oc2cc(-c3c(C)noc3C)c(OC)cc2c1C(=O)NC` [Example 318, 6-(3,5-Dimethyl-isoxazol-4-yl)-2-(2-ethoxy-4-fluoro-phenyl)-5-methoxy-benzofuran-3-carboxylic acid methylamide], for which, in test [1] (setting [5]), the EC50 is over 30000 nM. For the same molecule, the IC50 in test [2] (setting [9]) is at most 500 nM.

As to `CNC(=O)c1c(-c2ccc(F)cc2)oc2cc(N(C)S(C)(=O)=O)c(OCc3nnsc3Cl)cc12` [Example 397, 5-(5-Chloro-[1,2,3]thiadiazol-4-ylmethoxy)-2-(4-fluoro-phenyl)-6-(methanesulfonyl-methyl-amino)-benzofuran-3-carboxylic acid methylamide], the EC50 in test [1] (setting [13]) is under 1000 nM. The IC50 in test [2] (setting [10]) was at most 500 nM.

In the case of `CCNC(=O)c1c(-c2ccccc2)oc2ccc(OC)cc12` [Example 130, 5-Methoxy-2-phenyl-benzofuran-3-carboxylic acid ethylamide], in test [1] (setting [11]), the EC50 was under 10000 nM. For the same molecule, the IC50 in test [2] (HCV NS5B RdRp, BB7 genotype 1b) is 5000 to 30000 nM.

Consider `CCOc1cc2c(C(=O)NC)c(-c3ccc(F)cc3)oc2cc1N(C)S(C)(=O)=O` [Example 38, 5-Ethoxy-2-(4-fluoro-phenyl)-6-(methanesulfonyl-methyl-amino)-benzofuran-3-carboxylic acid methylamide], for which the EC50 in test [1] (setting [3]) was under 1000 nM. Besides, the 50% inhibitory concentration (IC50) in test [2] (setting [4]) is at most 500 nM.

Consider `CNC(=O)c1c(-c2ccc(F)cc2)oc2cc(N3CCOCC3)c(OCc3ccc(C(=O)OC)cc3)cc12` [Example 262, 4-[2-(4-Fluoro-phenyl)-3-methylcarbamoyl-6-morpholin-4-yl-benzofuran-5-yloxymethyl]-benzoic acid methyl ester], for which, in test [1] (setting [5]), the EC50 was under 10000 nM. The IC50 in test [2] (setting [9]) is at most 500 nM.

The record behind these values is patent US7265152B2 (ViroPharma Incorporated, priority 2002, dated 2007).
